Columns and labels:
Format in all cases: cell-based
M1 muscarinic receptor = target: T1, M1 muscarinic receptor (Homo sapiens, UniProt P11229); test: Functional mobilization of intracellular calcium (FLIPR), M1-CHO cells; settings: for Emax: 100% efficacy = maximum response obtained with the Carbachol control; for M1 Activity: M1-CHO cells, calcium mobilization (FLIPR)
T1 construct: expressed in transfected cells; host or cells: CHO (M1-CHO)
T1 sequence (P11229 1-460): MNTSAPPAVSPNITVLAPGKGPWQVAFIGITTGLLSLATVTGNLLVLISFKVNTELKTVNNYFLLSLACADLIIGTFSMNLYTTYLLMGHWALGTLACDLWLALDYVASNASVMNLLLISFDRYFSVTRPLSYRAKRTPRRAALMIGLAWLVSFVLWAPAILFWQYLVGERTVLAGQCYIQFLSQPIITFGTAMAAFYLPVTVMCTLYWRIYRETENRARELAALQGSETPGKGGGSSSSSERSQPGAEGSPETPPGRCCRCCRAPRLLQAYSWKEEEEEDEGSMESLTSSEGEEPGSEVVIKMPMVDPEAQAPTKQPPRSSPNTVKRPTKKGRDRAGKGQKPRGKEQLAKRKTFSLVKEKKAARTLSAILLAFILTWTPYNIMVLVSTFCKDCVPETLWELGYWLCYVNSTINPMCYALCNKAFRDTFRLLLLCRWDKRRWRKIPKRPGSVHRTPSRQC
Procedure, shortened: (§1)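 Calcium mobilisation read by FLIPR over 60 s (ex 488/em 540 nm) in recombinant muscarinic CHO lines loaded with calcium dye plus 1 mM probenecid. Compounds tested as agonists alone, or as inhibitors against EC80 carbachol after 15 min pre-incubation or co-addition; 0.5% DMSO; efficacy scaled to carbachol maximal response.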

M2 muscarinic receptor = target: T2, M2 muscarinic receptor (Homo sapiens, UniProt P08172); test: Functional mobilization of intracellular calcium (FLIPR), M2-CHO cells; settings: for Emax: 100% efficacy = maximum response obtained with the Carbachol control; for M2 Activity: M2-CHO cells, calcium mobilization (FLIPR)
T2 construct: expressed in transfected cells; host or cells: CHO (M2-CHO)
T2 sequence (P08172 1-466): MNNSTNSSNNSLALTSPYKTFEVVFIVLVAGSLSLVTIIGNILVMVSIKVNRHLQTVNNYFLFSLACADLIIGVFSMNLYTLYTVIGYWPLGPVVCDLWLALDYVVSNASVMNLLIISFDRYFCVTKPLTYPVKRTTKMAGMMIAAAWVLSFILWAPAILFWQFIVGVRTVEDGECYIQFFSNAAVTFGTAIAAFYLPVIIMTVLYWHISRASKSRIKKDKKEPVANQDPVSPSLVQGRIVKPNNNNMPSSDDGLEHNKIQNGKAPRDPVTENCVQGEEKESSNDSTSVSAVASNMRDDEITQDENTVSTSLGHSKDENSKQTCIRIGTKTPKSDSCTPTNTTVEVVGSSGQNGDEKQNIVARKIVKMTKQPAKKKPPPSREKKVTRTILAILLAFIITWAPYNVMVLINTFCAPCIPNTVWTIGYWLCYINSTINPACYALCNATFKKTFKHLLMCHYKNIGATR
Procedure, shortened: as §1

M4 muscarinic receptor = target: T3, M4 muscarinic receptor (Homo sapiens, UniProt P08173); test: Functional mobilization of intracellular calcium (FLIPR), M4-CHO cells; settings: for Emax: 100% efficacy = maximum response obtained with the Carbachol control; for M4 Activity: M4-CHO cells, calcium mobilization (FLIPR)
T3 construct: expressed in transfected cells; host or cells: CHO (M4-CHO)
T3 sequence (P08173 1-479): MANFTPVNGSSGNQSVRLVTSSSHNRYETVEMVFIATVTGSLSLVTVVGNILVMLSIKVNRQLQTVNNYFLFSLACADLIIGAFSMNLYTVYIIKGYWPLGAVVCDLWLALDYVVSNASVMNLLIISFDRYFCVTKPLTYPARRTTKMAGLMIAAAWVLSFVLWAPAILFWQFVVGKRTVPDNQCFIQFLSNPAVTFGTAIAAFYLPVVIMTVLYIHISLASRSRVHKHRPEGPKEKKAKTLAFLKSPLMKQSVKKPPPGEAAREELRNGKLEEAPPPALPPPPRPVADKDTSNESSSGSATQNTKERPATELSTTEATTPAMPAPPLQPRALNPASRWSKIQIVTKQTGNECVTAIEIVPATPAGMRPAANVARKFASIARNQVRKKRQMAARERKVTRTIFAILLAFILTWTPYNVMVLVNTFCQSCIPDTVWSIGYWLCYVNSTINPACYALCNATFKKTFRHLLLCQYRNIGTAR
Procedure, shortened: as §1

M3 muscarinic receptor = target: T4, M3 muscarinic receptor (Homo sapiens, UniProt P20309); test: Functional mobilization of intracellular calcium (FLIPR), M3-CHO cells; settings: for Emax: 100% efficacy = maximum response obtained with the Carbachol control; for M3 Activity: M3-CHO cells, calcium mobilization (FLIPR)
T4 construct: expressed in transfected cells; host or cells: CHO (M3-CHO)
Procedure, shortened: as §1

T4 sequence (P20309 whole entry): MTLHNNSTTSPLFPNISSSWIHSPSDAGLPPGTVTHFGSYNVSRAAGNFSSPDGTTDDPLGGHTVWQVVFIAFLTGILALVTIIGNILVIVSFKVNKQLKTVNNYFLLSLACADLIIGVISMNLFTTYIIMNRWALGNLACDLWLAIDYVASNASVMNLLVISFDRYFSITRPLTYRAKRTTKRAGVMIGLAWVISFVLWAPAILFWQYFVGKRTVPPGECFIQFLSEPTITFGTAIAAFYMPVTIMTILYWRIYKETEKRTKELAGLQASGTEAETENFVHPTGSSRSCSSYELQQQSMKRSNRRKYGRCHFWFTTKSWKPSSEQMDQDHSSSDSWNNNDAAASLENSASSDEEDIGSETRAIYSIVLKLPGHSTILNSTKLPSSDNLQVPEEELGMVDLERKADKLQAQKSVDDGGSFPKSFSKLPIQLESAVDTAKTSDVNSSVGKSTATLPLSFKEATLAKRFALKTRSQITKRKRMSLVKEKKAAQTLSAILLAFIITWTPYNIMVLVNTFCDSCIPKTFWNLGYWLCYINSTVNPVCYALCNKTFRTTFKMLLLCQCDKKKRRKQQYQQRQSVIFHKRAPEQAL

Row | SMILES | Emax (M1 muscarinic receptor) | M1 Activity (M1 muscarinic receptor) | Emax (M2 muscarinic receptor) | M2 Activity (M2 muscarinic receptor) | Emax (M4 muscarinic receptor) | M4 Activity (M4 muscarinic receptor) | Emax (M3 muscarinic receptor) | M3 Activity (M3 muscarinic receptor)
1 | COc1ccccc1C1(O)CCN([C@H]2C[C@H]3CC[C@H]2C3)CC1O (stereo partly drawn) [Compound 197] | < 25% | + (activity was measured to be greater than 5.0 μM) | < 25% | + (activity was measured to be greater than 5.0 μM) | 25 to 100% | + (activity was measured to be greater than 5.0 μM) | < 25% | + (activity was measured to be greater than 5.0 μM)
2 | CCOC(=O)N1C2CCC1CC(N1CCC(c3cc(F)cc(F)c3OC)CC1)C2 (stereo not drawn) [Compound 198] | 25 to 100% | ++ (activity was measured to be from 1.0 μM to 5.0 μM) | < 25% | + (activity was measured to be greater than 5.0 μM) | 25 to 100% | +++ (activity was measured to be less than 1.0 μM) | < 25% | + (activity was measured to be greater than 5.0 μM)
3 | COc1ccccc1C1CCN(C2CCCC3(CCCCC3)C2)CC1 (stereo not drawn) [Compound 199] | < 25% | + (activity was measured to be greater than 5.0 μM) | < 25% | + (activity was measured to be greater than 5.0 μM) | < 25% | + (activity was measured to be greater than 5.0 μM) | < 25% | + (activity was measured to be greater than 5.0 μM)
4 | COc1ccc(F)cc1C1CCN(C2CCCCC2)CC1 [Compound 200] | 25 to 100% | +++ (activity was measured to be less than 1.0 μM) | 25 to 100% | ++ (activity was measured to be from 1.0 μM to 5.0 μM) | 25 to 100% | +++ (activity was measured to be less than 1.0 μM) | < 25% | + (activity was measured to be greater than 5.0 μM)
5 | CCOC(=O)N1C2CCC1CC(N1CCC(c3ccccc3OC)CC1)C2 (stereo not drawn) [Compound 202] | 25 to 100% | +++ (activity was measured to be less than 1.0 μM) | 25 to 100% | ++ (activity was measured to be from 1.0 μM to 5.0 μM) | 25 to 100% | +++ (activity was measured to be less than 1.0 μM) | < 25% | + (activity was measured to be greater than 5.0 μM)
6 | Fc1ccc(F)c(C2CCN(C3C[C@H]4CC[C@H]3C4)CC2)c1 (stereo partly drawn) [Compound 205] | 25 to 100% | ++ (activity was measured to be from 1.0 μM to 5.0 μM) | 25 to 100% | ++ (activity was measured to be from 1.0 μM to 5.0 μM) | 25 to 100% | +++ (activity was measured to be less than 1.0 μM) | < 25% | + (activity was measured to be greater than 5.0 μM)
7 | COc1ccc(-c2cc(F)ccc2F)cc1C1CCN([C@H]2C[C@H]3CC[C@H]2C3)CC1 [Compound 206] | < 25% | + (activity was measured to be greater than 5.0 μM) | < 25% | + (activity was measured to be greater than 5.0 μM) | 25 to 100% | + (activity was measured to be greater than 5.0 μM) | < 25% | + (activity was measured to be greater than 5.0 μM)
8 | COc1ccc(F)cc1C1CCN(C2CC3CCC(C3)C2)CC1 (stereo not drawn) [Compound 207] | 25 to 100% | +++ (activity was measured to be less than 1.0 μM) | < 25% | + (activity was measured to be greater than 5.0 μM) | 25 to 100% | +++ (activity was measured to be less than 1.0 μM) | < 25% | + (activity was measured to be greater than 5.0 μM)
9 | COc1ccc(Cl)cc1C1CCN(C2CC3CCC2C3)CC1 (stereo not drawn) [Compound 209, 1-(bicyclo[2.2.1]heptan-2-yl)-4-(5-chloro-2-methoxyphenyl)-piperidine] | 25 to 100% | ++ (activity was measured to be from 1.0 μM to 5.0 μM) | 25 to 100% | ++ (activity was measured to be from 1.0 μM to 5.0 μM) | 25 to 100% | +++ (activity was measured to be less than 1.0 μM) | < 25% | + (activity was measured to be greater than 5.0 μM)
10 | COc1ccccc1C1CCN(C2CC[C@@H](C)C2)CC1 (stereo partly drawn) [Compound 210] | 25 to 100% | + (activity was measured to be greater than 5.0 μM) | < 25% | + (activity was measured to be greater than 5.0 μM) | 25 to 100% | +++ (activity was measured to be less than 1.0 μM) | < 25% | + (activity was measured to be greater than 5.0 μM)
11 | CCOC(=O)N1CCC(N2CCC(c3ccccc3OC)CC2)CC1 [Compound 211] | 25 to 100% | +++ (activity was measured to be less than 1.0 μM) | 25 to 100% | +++ (activity was measured to be less than 1.0 μM) | > 100% | +++ (activity was measured to be less than 1.0 μM) | 25 to 100% | + (activity was measured to be greater than 5.0 μM)
12 | Cc1ccc(F)cc1C1CCN([C@H]2C[C@H]3CC[C@H]2C3)CC1 [Compound 212] | 25 to 100% | + (activity was measured to be greater than 5.0 μM) | < 25% | + (activity was measured to be greater than 5.0 μM) | 25 to 100% | +++ (activity was measured to be less than 1.0 μM) | < 25% | + (activity was measured to be greater than 5.0 μM)
13 | COc1ccc(Cl)cc1C1(F)CCN(C[C@H]2C[C@H]3C=C[C@H]2C3)CC1 [Compound 213] | 25 to 100% | + (activity was measured to be greater than 5.0 μM) | 25 to 100% | ++ (activity was measured to be from 1.0 μM to 5.0 μM) | 25 to 100% | +++ (activity was measured to be less than 1.0 μM) | < 25% | + (activity was measured to be greater than 5.0 μM)
14 | COc1ccc(-c2ccc(S(=O)(=O)C(C)C)cc2)cc1C1CCN([C@H]2C[C@H]3CC[C@H]2C3)CC1 [Compound 214] | 25 to 100% | + (activity was measured to be greater than 5.0 μM) | < 25% | + (activity was measured to be greater than 5.0 μM) | 25 to 100% | ++ (activity was measured to be from 1.0 μM to 5.0 μM) | < 25% | + (activity was measured to be greater than 5.0 μM)
15 | CCOC(=O)N1C2CCC1CC(N1CCC(c3cc(-c4ccc(S(=O)(=O)N5CCCC5)cc4)ccc3OC)CC1)C2 (stereo not drawn) [Compound 215] | 25 to 100% | + (activity was measured to be greater than 5.0 μM) | < 25% | + (activity was measured to be greater than 5.0 μM) | < 25% | + (activity was measured to be greater than 5.0 μM) | < 25% | + (activity was measured to be greater than 5.0 μM)

From patent US7880007B2, “Bicyclic substituted phenyl piperidine modulators of muscarinic receptors” (Vertex Pharmaceuticals Incorporated, priority 2004, dated 2011)
